What all share (assay type): cell-based, human rhinovirus
One experiment relates to rhinovirus-T39. The experiment is described as follows: antiviral activity of HuIFN-α versus rhinovirus in presence and absence of menthol (MTS method, WISH cells). Particulars: menthol 1:800. The procedure:
Rhinovirus 1A, rhinovirus 15 and rhinovirus 39 were titrated according to the tetrazolium salt (MTS)-method (Berg et al., 1990) (Hansen et al., 1989)). WISH cells were seeded in a micro tray at 3000 cells per well and incubated at 37° C., 5% CO2 overnight; the following morning the medium was replaced with 10-fold dilutions of either rhinovirus 1A, rhinovirus 15 or rhinovirus 39, respectively, in fresh medium and the trays were incubated 4-5 days at 33° C.; a microscopical examination confirmed that the CytoPathogenic Effect (CPE) was fully developed (CPE equal to 100%). The minimal amount of virus (i.e.: the highest dilution of the virus in question) which produced 100% destruction was used as “challenge virus” in the subsequent experiments. To quantitate the CPE in terms of % destruction, MTS (Berg and Owen, 2003) was added to all cultures and after 3 h incubation at 37° C. (without CO2) the trays were read in a scanner as previously described (Berg et al., 1990). […]
The results were graphed with the concentration of interferon on the horizontal scale and the OD492 readings on the vertical scale.
(Tetrazolium dyes change colour on reduction, which living cells bring about.)

The subject of the next experiment is rhinovirus T39. Briefly: rhinovirus titration on WISH cell monolayers in presence or absence of menthol. The following applies: menthol dilution 1:800; virus dilution range 10^2-10^3; WISH cells (FIG. 2A). The method, then: Rhinovirus 1A, rhinovirus 15 and rhinovirus 39 were titrated according to the tetrazolium salt (MTS)-method (Berg et al., 1990) (Hansen et al., 1989)). WISH cells were seeded in a micro tray at 3000 cells per well and incubated at 37° C., 5% CO2 overnight; the following morning the medium was replaced with 10-fold dilutions of either rhinovirus 1A, rhinovirus 15 or rhinovirus 39, respectively, in fresh medium and the trays were incubated 4-5 days at 33° C.; a microscopical examination confirmed that the CytoPathogenic Effect (CPE) was fully developed (CPE equal to 100%). The minimal amount of virus (i.e.: the highest dilution of the virus in question) which produced 100% destruction was used as “challenge virus” in the subsequent experiments. To quantitate the CPE in terms of % destruction, MTS (Berg and Owen, 2003) was added to all cultures and after 3 h incubation at 37° C. (without CO2) the trays were read in a scanner as previously described (Berg et al., 1990). Control cell cultures, that were not infected with virus, were included in the experiment; the latter gave the highest OD as these cells were not damaged; depending on the concentration of virus added to the different wells, the OD492 varied, accordingly: 100% CPE yielded a low OD (<0.200); 0% CPE corresponding to no infection at all (controls cell) gave a high OD (>1.200). […]

In the next experiment the test system is RHV 1A, 17, and 39A. Briefly: rhinovirus titration in presence of menthol, all three rhinoviruses employed. The procedure:
WISH cells were seeded in a micro tray at 3000 cells per well and incubated at 37° C., 5% CO2 overnight; the following morning the medium was replaced with 10-fold dilutions of either rhinovirus 1A, […], respectively, in fresh medium and the trays were incubated 4-5 days at 33° C.; a microscopical examination confirmed that the CytoPathogenic Effect (CPE) was fully developed (CPE equal to 100%). The minimal amount of virus (i.e.: the highest dilution of the virus in question) which produced 100% destruction was used as “challenge virus” in the subsequent experiments. To quantitate the CPE in terms of % destruction, MTS (Berg and Owen, 2003) was added to all cultures and after 3 h incubation at 37° C. (without CO2) the trays were read in a scanner as previously described (Berg et al., 1990). Control cell cultures, that were not infected with virus, were included in the experiment; the latter gave the highest OD as these cells were not damaged; depending on the concentration of virus added to the different wells, the OD492 varied, accordingly: 100% CPE yielded a low OD (<0.200); 0% CPE corresponding to no infection at all (controls cell) gave a high OD (>1.200). […]

Turning to `CC(C)[C@@H]1CC[C@@H](C)C[C@H]1O` [Menthol, levo-(−)-Menthol], the “potentiation of interferon antiviral activity (interferon curve+menthol versus interferon curve)” value with rhinovirus-T39 (interferon range 0 to 8 units/ml, HRV T39, similar at 10^-2.5) is on record as “specific potentiation”. For the same molecule, in the experiment on rhinovirus-T39 (HRV T39 at 10^-2, IFN=0 units/ml, WISH cells, OD492 (FIG. 1A)), the “protection compared to uninfected control cells” value is reported as 10-15%. The “increase in protection compared to virus controls receiving no menthol” value in the experiment on rhinovirus T39 was approximately 50%. Also, the protection against rhinovirus entry in the experiment with RHV 1A, 17, and 39A is listed as “protection was seen”.

The values are drawn from patent US20090227670A1, “PHARMACEUTICAL COMPOSITIONS COMPRISING FLAVONOIDS AND MENTHOL” (priority 2002, published 2009).
